ChEMBL document CHEMBL1140425, “Discovery of indoles as potent and selective inhibitors of the deacetylase SIRT1” (J Med Chem, 2005)
pIC50: −log10 of the molar value. One block for each compound: values may come before it.

Assays:
[1] = target: hERG (KCNH2) potassium channel (Homo sapiens, UniProt Q12809); assay: Percentage inhibitory activity against hERG potassium channel transfected in CHO cells at 10uM; conditions: CHO cells transfected with hERG
CYP1A2 = target: T1, CYP1A2 (Homo sapiens, UniProt P05177); assay: Percent inhibitory activity against human CYP1A2 at 1uM; type: ADME
T1 sequence (P05177 whole entry): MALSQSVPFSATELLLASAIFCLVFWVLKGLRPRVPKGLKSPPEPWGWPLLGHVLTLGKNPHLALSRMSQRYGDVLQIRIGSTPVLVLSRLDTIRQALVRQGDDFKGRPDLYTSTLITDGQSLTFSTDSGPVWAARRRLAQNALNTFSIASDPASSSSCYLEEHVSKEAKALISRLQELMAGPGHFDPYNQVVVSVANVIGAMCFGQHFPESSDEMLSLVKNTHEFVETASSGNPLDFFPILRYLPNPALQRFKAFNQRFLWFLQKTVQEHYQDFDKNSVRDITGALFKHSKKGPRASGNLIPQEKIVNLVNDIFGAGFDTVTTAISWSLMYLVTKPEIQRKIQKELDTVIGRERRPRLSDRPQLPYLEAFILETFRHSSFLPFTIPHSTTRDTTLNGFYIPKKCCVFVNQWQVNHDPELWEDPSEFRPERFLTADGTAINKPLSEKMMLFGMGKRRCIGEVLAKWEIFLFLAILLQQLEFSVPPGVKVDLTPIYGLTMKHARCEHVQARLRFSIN

CYP2C9 = CYP2C9 (Homo sapiens, UniProt P11712); assay: Percent inhibitory activity against human CYP2C9 at 1uM; type: ADME
[2] = target: T2, NAD-dependent protein deacetylase sirtuin-2 (Homo sapiens, UniProt Q8IXJ6)
T2 sequence (Q8IXJ6 whole entry): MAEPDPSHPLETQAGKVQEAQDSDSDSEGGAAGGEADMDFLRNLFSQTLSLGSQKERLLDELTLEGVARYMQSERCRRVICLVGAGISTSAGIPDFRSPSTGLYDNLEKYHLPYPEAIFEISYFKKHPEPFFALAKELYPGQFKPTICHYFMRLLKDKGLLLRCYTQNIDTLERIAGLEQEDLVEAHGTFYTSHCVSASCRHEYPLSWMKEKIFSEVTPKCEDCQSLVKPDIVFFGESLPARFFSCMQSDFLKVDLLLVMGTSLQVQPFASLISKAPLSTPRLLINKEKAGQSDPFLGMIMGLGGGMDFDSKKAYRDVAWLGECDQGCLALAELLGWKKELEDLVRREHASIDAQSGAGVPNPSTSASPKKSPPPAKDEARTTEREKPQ
Description: Inhibitory activity against recombinant human SIRT2 expressed in Escherichia coli by fluorimetric assay

CYP2D6 = CYP2D6 (Homo sapiens, UniProt P10635); assay: Percent inhibitory activity against human CYP2D6 at 1uM; type: ADME
Histone deacetylase = assay: Inhibitory activity against human HDAC in HeLa cell extract by fluorimetric assay; type: cell-free
CYP2C19 = CYP2C19 (Homo sapiens, UniProt P33261); assay: Percent inhibitory activity against human CYP2C19 at 1uM; type: ADME
[3] = target: T3, NAD-dependent protein deacetylase sirtuin-3, mitochondrial (Homo sapiens, UniProt Q9NTG7); assay: Inhibitory activity against recombinant human SIRT3 expressed in Escherichia coli by fluorimetric assay
T3 sequence (Q9NTG7 whole entry): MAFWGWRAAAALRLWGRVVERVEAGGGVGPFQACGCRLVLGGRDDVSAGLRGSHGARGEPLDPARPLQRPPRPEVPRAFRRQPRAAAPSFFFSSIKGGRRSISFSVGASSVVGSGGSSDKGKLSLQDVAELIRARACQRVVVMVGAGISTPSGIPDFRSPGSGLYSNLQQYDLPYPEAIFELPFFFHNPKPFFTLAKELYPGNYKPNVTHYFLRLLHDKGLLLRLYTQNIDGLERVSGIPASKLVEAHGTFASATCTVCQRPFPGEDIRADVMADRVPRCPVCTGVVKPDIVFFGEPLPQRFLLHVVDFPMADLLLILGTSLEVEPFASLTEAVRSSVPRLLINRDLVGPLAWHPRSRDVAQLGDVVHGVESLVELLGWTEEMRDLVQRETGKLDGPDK

CYP3A4 = CYP3A4 (Homo sapiens, UniProt P08684); assay: Percent inhibitory activity against human CYP3A4 at 1uM; type: ADME
[4] = target: T4, NAD-dependent protein deacetylase sirtuin-1 (Homo sapiens, UniProt Q96EB6)
T4 sequence (Q96EB6 whole entry): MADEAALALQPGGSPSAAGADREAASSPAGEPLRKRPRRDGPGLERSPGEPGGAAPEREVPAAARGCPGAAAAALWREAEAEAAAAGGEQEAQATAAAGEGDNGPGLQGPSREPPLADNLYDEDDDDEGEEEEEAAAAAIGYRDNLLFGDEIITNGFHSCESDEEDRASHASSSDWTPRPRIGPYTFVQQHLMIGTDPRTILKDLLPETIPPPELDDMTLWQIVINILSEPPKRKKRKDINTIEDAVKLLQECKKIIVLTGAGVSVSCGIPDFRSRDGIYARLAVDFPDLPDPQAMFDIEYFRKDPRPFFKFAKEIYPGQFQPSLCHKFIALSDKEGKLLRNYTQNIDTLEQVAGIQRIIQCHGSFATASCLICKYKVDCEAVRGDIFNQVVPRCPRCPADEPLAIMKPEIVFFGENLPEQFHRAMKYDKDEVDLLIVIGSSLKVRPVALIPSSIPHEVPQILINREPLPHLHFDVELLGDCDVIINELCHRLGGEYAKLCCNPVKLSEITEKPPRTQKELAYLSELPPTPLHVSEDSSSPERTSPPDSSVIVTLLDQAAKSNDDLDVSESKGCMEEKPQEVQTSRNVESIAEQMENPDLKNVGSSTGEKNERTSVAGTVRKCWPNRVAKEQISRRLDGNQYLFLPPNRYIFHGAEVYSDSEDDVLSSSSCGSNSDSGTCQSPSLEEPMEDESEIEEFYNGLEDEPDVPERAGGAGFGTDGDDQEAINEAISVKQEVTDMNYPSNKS
Description: Inhibitory activity against human SIRT1 by radiochemical Nicotinamide release assay

[5] = target: T4, NAD-dependent protein deacetylase sirtuin-1; remark: listed apart in the source
Description: Inhibitory activity against recombinant human SIRT1 expressed in Escherichia coli by fluorimetric assay

Liver microsomes = assay: Stability in rat liver microsomes at 10 uM; type: ADME, Microsome
[6] = Half life in rat liver microsomes; type: ADME, Microsome
[7] = Serum half life in mice administered with 10 mg/kg, po; type: ADME, organism-based; set-up: dose 10 mg/kg, route oral; conditions: C57bl/6J, mouse

CYP2C19, sequence (P33261 whole entry): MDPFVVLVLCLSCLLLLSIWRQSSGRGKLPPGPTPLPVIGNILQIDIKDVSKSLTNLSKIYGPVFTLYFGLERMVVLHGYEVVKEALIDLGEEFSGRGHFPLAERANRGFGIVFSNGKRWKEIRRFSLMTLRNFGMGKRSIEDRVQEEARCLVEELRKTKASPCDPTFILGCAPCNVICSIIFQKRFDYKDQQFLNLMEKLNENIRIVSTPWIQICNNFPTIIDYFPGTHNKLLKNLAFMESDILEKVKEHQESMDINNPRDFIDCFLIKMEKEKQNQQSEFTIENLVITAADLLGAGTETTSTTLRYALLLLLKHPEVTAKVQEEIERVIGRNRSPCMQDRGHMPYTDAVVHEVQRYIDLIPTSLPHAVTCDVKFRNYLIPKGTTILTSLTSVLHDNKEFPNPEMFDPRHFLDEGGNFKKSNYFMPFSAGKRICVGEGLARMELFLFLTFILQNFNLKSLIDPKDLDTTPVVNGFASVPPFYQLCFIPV
CYP2C9, sequence (P11712 whole entry): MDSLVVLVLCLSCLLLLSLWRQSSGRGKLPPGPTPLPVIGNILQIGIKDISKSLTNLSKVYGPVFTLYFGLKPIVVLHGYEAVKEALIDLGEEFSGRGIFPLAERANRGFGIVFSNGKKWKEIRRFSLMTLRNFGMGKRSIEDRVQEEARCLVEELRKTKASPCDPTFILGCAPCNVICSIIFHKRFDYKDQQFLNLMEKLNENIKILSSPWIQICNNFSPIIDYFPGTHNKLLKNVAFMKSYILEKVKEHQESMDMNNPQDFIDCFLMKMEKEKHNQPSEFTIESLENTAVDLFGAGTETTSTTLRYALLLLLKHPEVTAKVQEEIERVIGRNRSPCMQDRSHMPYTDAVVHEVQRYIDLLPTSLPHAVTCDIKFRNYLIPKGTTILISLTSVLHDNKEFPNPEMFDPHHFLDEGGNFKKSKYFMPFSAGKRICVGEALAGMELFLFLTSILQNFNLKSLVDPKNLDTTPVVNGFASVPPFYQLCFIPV
CYP2D6, sequence (P10635 whole entry): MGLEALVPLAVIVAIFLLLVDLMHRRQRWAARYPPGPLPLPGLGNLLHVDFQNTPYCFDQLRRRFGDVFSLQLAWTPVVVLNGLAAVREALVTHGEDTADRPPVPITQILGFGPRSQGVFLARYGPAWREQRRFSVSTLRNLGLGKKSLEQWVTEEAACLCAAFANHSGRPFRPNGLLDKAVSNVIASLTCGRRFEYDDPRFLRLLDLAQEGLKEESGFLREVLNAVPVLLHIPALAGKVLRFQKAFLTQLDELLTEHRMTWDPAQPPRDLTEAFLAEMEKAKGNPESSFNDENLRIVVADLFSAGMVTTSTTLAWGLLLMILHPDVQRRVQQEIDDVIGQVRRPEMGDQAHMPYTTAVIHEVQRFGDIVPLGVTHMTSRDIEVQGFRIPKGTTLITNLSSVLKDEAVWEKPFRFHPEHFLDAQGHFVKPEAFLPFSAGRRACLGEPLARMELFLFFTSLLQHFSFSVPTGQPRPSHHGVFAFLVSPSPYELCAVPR
hERG (KCNH2) potassium channel, sequence (Q12809 whole entry): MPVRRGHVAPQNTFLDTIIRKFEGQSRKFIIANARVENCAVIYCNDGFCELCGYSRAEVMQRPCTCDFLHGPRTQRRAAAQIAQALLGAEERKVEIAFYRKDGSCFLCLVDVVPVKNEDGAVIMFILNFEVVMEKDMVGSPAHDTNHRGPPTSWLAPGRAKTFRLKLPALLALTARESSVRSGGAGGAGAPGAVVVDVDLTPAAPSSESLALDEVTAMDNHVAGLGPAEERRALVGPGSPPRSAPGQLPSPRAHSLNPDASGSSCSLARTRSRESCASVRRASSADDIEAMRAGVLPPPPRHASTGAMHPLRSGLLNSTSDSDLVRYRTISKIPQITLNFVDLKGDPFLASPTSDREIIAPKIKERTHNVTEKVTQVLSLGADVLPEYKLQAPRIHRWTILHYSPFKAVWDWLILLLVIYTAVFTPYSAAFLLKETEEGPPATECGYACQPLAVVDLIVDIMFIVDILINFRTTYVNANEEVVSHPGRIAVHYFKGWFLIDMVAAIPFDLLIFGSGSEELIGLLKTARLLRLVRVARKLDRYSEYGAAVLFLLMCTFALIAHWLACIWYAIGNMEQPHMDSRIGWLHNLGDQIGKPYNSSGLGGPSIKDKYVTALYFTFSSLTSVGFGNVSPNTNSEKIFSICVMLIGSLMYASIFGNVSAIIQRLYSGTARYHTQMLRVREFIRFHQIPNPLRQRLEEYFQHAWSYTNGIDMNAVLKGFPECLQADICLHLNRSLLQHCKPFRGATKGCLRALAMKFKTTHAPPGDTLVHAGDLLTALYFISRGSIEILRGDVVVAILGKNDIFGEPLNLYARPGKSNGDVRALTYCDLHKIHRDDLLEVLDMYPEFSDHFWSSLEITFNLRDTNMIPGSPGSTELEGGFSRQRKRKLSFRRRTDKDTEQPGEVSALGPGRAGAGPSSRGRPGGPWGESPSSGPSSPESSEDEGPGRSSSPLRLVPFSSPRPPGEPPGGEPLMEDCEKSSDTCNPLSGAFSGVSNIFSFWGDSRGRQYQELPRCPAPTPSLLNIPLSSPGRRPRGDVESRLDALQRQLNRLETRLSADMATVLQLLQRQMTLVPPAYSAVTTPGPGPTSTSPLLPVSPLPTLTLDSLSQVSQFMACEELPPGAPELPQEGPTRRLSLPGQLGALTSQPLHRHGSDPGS
CYP3A4, sequence (P08684 whole entry): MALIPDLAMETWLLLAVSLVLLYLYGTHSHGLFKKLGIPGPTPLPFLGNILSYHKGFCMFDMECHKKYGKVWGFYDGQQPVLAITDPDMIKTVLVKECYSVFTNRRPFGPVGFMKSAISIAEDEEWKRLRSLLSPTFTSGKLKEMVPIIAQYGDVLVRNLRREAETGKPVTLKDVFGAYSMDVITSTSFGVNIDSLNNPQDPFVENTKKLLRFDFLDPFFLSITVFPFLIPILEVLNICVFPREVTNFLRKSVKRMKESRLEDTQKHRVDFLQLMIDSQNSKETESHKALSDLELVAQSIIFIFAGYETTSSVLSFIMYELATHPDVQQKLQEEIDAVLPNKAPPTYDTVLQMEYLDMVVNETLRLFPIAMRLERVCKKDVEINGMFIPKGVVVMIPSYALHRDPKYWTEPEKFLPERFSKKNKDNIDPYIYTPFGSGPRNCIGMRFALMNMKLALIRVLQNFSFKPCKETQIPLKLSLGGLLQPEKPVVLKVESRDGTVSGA

inhibition at 1 µM (CYP1A2): 4%
inhibition at 1 µM (CYP2C9): -8%
pIC50 [2]: 4.61
inhibition at 1 µM (CYP2D6): -4%
IC50 (Histone deacetylase): > 100 µM
inhibition at 1 µM (CYP2C19): 5%
pIC50 [3]: < 4.00
inhibition at 1 µM (CYP3A4): -22%
SMILES: NC(=O)C1CCCc2c1[nH]c1ccccc21 (configuration not stated)
inhibition at 10 µM [1]: 0%

pIC50 [5]: < 4.00
SMILES: Cc1ccc2[nH]c3c(c2c1)CCCC3CN (configuration not stated)

pIC50 [5]: 5.57
SMILES: NC(=O)C1CCc2c1[nH]c1ccccc21 (configuration not stated)

pIC50 [5]: 4.10
SMILES: CC(=O)N1CCc2c([nH]c3ccc(Cl)cc23)C1C(N)=O (configuration not stated)

pIC50 [5]: < 4.00
SMILES: Cc1ccc2c(c1)c1c(n2C)C(C(N)=O)CCC1 (configuration not stated)

pIC50 [5]: 4.82
SMILES: NC(=O)C1CCCc2c1[nH]c1ccc(O)cc21 (configuration not stated)

pIC50 [5]: < 4.00
SMILES: NC(=O)C1NCCc2c1[nH]c1ccc(Br)cc21 (configuration not stated)

The remaining lines, values behind:

SMILES: Cc1ccc2[nH]c3c(c2c1)CCCC3C(N)=O (configuration not stated)
inhibition at 10 µM [1]: 0%
inhibition at 1 µM (CYP1A2): 7%
inhibition at 1 µM (CYP2C9): -9%
pIC50 [2]: 4.94
inhibition at 1 µM (CYP2D6): -3%
IC50 (Histone deacetylase): > 100 µM
inhibition at 1 µM (CYP2C19): 9%
pIC50 [4]: 5.60
pIC50 [5]: 6.69
pIC50 [3]: < 4.00
inhibition at 1 µM (CYP3A4): -16%

SMILES: CCOC(=O)C1CCCc2c1[nH]c1ccc(Cl)cc21 (configuration not stated)
pIC50 [5]: < 4.00

SMILES: NC(=O)CNC(=O)C1CCCc2c1[nH]c1ccc(Cl)cc21 (configuration not stated)
pIC50 [5]: < 4.00

SMILES: O=C(O)C1CCCc2c1[nH]c1ccc(Cl)cc21 (configuration not stated)
pIC50 [5]: < 4.00

SMILES: O=C(NO)C1CCCc2c1[nH]c1ccc(Cl)cc21 (configuration not stated)
pIC50 [5]: 4.11

SMILES: NC(=O)C1CCc2c([nH]c3ccc(Cl)cc23)C1 (configuration not stated)
pIC50 [5]: 4.46

SMILES: CCNC(=O)C1CCCc2c1[nH]c1ccc(Cl)cc21 (configuration not stated)
pIC50 [5]: < 4.00

SMILES: NC(=O)C1CCc2c1[nH]c1ccc(Cl)cc21 (configuration not stated)
pIC50 [5]: 6.39

SMILES: CCN(CC)C(=O)C1CCCc2c1[nH]c1ccc(Cl)cc21 (configuration not stated)
pIC50 [5]: < 4.00

SMILES: NC(=O)C1CCc2c([nH]c3ccc(Br)cc23)C1 (configuration not stated)
pIC50 [5]: 5.61

SMILES: NC(=O)C1NCCc2c1[nH]c1ccc(Cl)cc21 (configuration not stated)
pIC50 [5]: 4.74

SMILES: Cc1ccc2[nH]c3c(c2c1)CCCC3(C)C(N)=O (configuration not stated)
pIC50 [5]: 4.89

SMILES: NC(=O)C1CCCc2c1[nH]c1ccc(Cl)cc21 (configuration not stated)
inhibition at 10 µM [1]: 0%
inhibition at 1 µM (CYP1A2): 11%
inhibition at 1 µM (CYP2C9): -5%
inhibition at 1 µM (CYP2D6): -5%
Stability (Liver microsomes): Stable
half-life [6]: > 1 h
IC50 (Histone deacetylase): > 100 µM
inhibition at 1 µM (CYP2C19): 6%
half-life [7]: 2.27 h
inhibition at 1 µM (CYP3A4): -26%

SMILES: NC(=O)C1CCCCc2c1[nH]c1ccc(Cl)cc21 (configuration not stated)
inhibition at 1 µM (CYP1A2): 23%
inhibition at 1 µM (CYP2C9): 11%
inhibition at 1 µM (CYP2D6): 3%
Stability (Liver microsomes): Stable
half-life [6]: > 1 h
IC50 (Histone deacetylase): > 100 µM
inhibition at 1 µM (CYP2C19): 23%
half-life [7]: 1.57 h
pIC50 [3]: < 4.00
inhibition at 1 µM (CYP3A4): -12%
